# Results published in patent US5278045A, “Method and compositions to screen compounds for enhancement of the cholinergic, dopaminergic and serotonergic function” (Du Pont Merck Pharmaceutical Company, priority 1990, dated 1994).
# Where no end group is shown, it is not given here.
# Tested on: DuP 996 binding protein
# Assay: Specificity of the DuP 996 binding protein (displacement of tritiated DuP 996 by pharmacological standards)
# Design: species or system rat
# Conditions: not given
row,Compound,ability to displace tritiated DuP 996 binding from the binding protein
1,CN1[C@@H]2CC[C@H]1C[C@@H](OC(=O)C(CO)c1ccccc1)C2 (stereo partly drawn) [atropine],None of these pharmacological standards was able to displace
2,CN1C(=O)CN=C(c2ccccc2)c2cc(Cl)ccc21 [diazepam],None of these pharmacological standards was able to displace
3,CN1CCCC1c1cccnc1 (stereo not drawn) [nicotine],None of these pharmacological standards was able to displace
4,COc1ccc(CCN(C)CCCC(C#N)(c2ccc(OC)c(OC)c2)C(C)C)cc1OC (stereo not drawn) [verapamil],None of these pharmacological standards was able to displace

# Same assay, conditions: receptor and ion channel ligands and neuropeptides against 10 nM tritiated DuP 996
row,Compound,ability to displace tritiated DuP 996 binding from the binding protein
1,"3,4-aminopyridine",None of these pharmacological standards was able to displace
2,"C=CCN1CCC2(C)c3cc(O)ccc3CC1C2C (single isomer, unassigned; (+)) [(+)-SKF 10,047]",None of these pharmacological standards was able to displace
3,NCCCC(=O)O [GABA],None of these pharmacological standards was able to displace
4,CN[C@H](CC(=O)O)C(=O)O [N-methyl-D-aspartic acid],None of these pharmacological standards was able to displace
5,Nc1ncnc2c1ncn2[C@@H]1O[C@H](CO)[C@@H](O)[C@H]1O [adenosine],None of these pharmacological standards was able to displace
6,CN(C)CCC=C1c2ccccc2CCc2ccccc21 [amitriptyline],None of these pharmacological standards was able to displace
7,CC(N)Cc1ccccc1 (stereo not drawn) [amphetamine],None of these pharmacological standards was able to displace
8,Cn1c(=O)c2c(ncn2C)n(C)c1=O [caffeine],None of these pharmacological standards was able to displace
9,CN/C(=N/CCSCc1nc[nH]c1C)NC#N [cimetidine],None of these pharmacological standards was able to displace
10,O=C(CCCN1CCC(O)(c2ccc(Cl)cc2)CC1)c1ccc(F)cc1 [haloperidol],None of these pharmacological standards was able to displace
11,CC(C)NCC(O)c1ccc(O)c(O)c1 (stereo not drawn) [isoproterenol],None of these pharmacological standards was able to displace
12,CN1CCN2c3ccccc3Cc3ccccc3C2C1 (stereo not drawn) [mianserin],None of these pharmacological standards was able to displace
13,C=CCN1CC[C@]23c4c5ccc(O)c4O[C@H]2C(=O)CC[C@@]3(O)[C@H]1C5 [naloxone],None of these pharmacological standards was able to displace
14,NC[C@H](O)c1ccc(O)c(O)c1 [norepinephrine],None of these pharmacological standards was able to displace
15,C1CCc2nnnn2CC1 [pentylenetetrazol],None of these pharmacological standards was able to displace
16,c1ccc(C2(N3CCCCC3)CCCCC2)cc1 [phencyclidine],None of these pharmacological standards was able to displace
17,NC(=O)CN1CCCC1=O [piracetam],None of these pharmacological standards was able to displace
18,COc1ccc(CN(CCN(C)C)c2ccccn2)cc1 [pyrilamine],None of these pharmacological standards was able to displace
19,O=C1C[C@@H]2OCC=C3CN4CC[C@]56c7ccccc7N1[C@H]5[C@H]2[C@H]3C[C@H]46 [strychnine],None of these pharmacological standards was able to displace
20,COC(=O)[C@@H]1[C@H]2C[C@H]3c4[nH]c5ccccc5c4CCN3C[C@@H]2CC[C@@H]1O [yohimbine],None of these pharmacological standards was able to displace
21,ACTH 1-24: pharmacological standard,None of these pharmacological standards was able to displace
22,LHRH: pharmacological standard,None of these pharmacological standards was able to displace
23,RPPGFSPFR [bradykinin],None of these pharmacological standards was able to displace
24,angiotensin III,None of these pharmacological standards was able to displace
25,cholecystokinin,None of these pharmacological standards was able to displace
26,neurokinin A,None of these pharmacological standards was able to displace
27,neurokinin B,None of these pharmacological standards was able to displace
28,neurotensin 8-13,None of these pharmacological standards was able to displace
29,substance P,None of these pharmacological standards was able to displace
30,veratidine,None of these pharmacological standards was able to displace

# Target: DuP 996 binding protein
# Assay: Radioreceptor screening assay (displacement of tritiated DuP 996)
# Design: species or system rat
# Conditions: inhibition of binding of 10 nM tritiated DuP 996, pH 7.4, 25° C., 60 minutes
# Procedure: Male Sprague-Dawley rats (Charles River Breeding Laboratories) at 200-250 g were euthanatized by decapitation. Rat brain regions were dissected according to Heffner et al., Pharmacol. Biochem. Behav., 13, 453 (1980). Brain membranes were prepared by the method of Tam, Proc. Natl. Acad. Sci. USA, 80, 6703 (1983). The brain tissues were homogenized (20 sec) in 10 vol (wt/vol) of ice-cold 0.32M sucrose with a Brinkman Polytron (setting 8). The homogenate was centrifuged at 920×g for 10 min at 4° C. The supernatant was centrifuged at 47,000×g for 20 min. The resulting membrane pellet was resuspended in 10 vol (original wt/vol) of 50 mM Tris-HCl (pH 7.4) and incubated at 37° C. for 30 min to degrade and dissociate bound endogenous ligands. The membranes were then centrifuged at 47,000×g for 20 min and resuspended in 50 mM Tris-HCl.
# Compounds to be screened were incubated with brain membranes. (1-2 mg protein) in 50 mM Tris-HCl buffer, pH 7.4, for 10 minutes in 25° C. Then 10 nM tritiated DuP 996 or its active structural analogs were added and incubated at 25° C. for 60 minutes. The samples were filtered on Whatman GF/B glass filters which had been soaked in 0.2% polyethylenimine and washed 3 times each with 5 ml of ice-cold Tris buffer. Nonspecific binding was determined by performing binding in the presence of 10 μM DuP 996. The control represents specific binding in the absence of compounds to be screened. Screened compounds which inhibited the specific binding of tritiated DuP 996 or analogs to its binding protein should be active in binding to the same protein. This is illustrated further in Example 4, Part B.
row,Compound,IC50 [µM]
1,"CC(=O)c1ccc2c(c1)C(Cc1ccncc1)(Cc1ccncc1)c1ccccc1-2 [Compound 1, 1-[9,9-Bis(4-pyridinylmethyl)-9H-fluoren-2-yl]-ethanone]",0.02
2,"Nc1ccc2c(c1)C(Cc1ccncc1)(Cc1ccncc1)c1ccccc1-2 [Compound 2, 9,9-Bis-(4-pyridinylmethyl)-9H-fluorene-2-amine]",0.03

# Tested on: ACh release
# Assay: Neurotransmitter release assay: stimulated ACh release from brain slices
# Design: species or system rat
# Conditions: concentration to enhance stimulated release of ACh by 100% (2-fold) over control, from dose response curves
# Procedure: Male Wistar rats weighing 175-200 g were euthanatized and the brains were dissected out immediately. Slices (0.3 mm thick) from the parietal cortex were prepared manually by using a recessed Lucite® guide. Slices (1.5 mm thick) from the hippocampus and the caudate nucleus were prepared by using a slotted brain holder. All slices were subsequently cut into 0.25×0.25 mm squares with a McIlwain tissue chopper.
# Labeling of transmitter stores in slices was prepared by the following methods. For ACh release, slices (approximately 100 mg wet weight) were incubated in 10 ml Krebs-Ringer (KR) medium containing (mM): NaCl(116), KCl(3), CaCl2 (1.3), MgCl2 (1.2), KH2 PO4 (1.2), Na2 SO4 (1.2), NaHCO3 (25) and glucose(11), to which 10 μCi ^3 H-choline (specific activity approx. 80 Ci/mmol: NEN) and 10 nmol unlabeled choline had been added to give a final concentration of 10^-6 M. Incubation was carried out for 30 min at 37° C. under a steady flow of 95% O2 /5% CO2. Under these conditions, part of the radioactive choline taken up is converted into radioactive ACh by cholinergic nerve endings, stored in synaptic vesicles, and released upon depolarization by high-K^+ -containing medium [Molenaar et al., 1973a]. For dopamine (DA), serotonin (5-HT), and norepinephrine (NE) release, slices (approximately 100 mg wet weight) were incubated in KR medium containing 0.01 mM nialamide at 37° C. under a steady flow of 95% O2 /5% CO2. The MAO-inhibitor nialamide was added to the medium in order to inhibit metabolism to the monoamines. Incubation was for 30 min in 10 ml of KR medium to which 10 μCi ^3 H-dopamine, ^3 H-norepinephrine, or ^3 H-5-hydroxytryptamine (specific activity 30, 45, and 78 Ci/mmol, respectively: all from NEN) had been added.
# Separate experiments were performed for the release of each neurotransmitter. After labeling of the transmitter stores, the slices were washed three times with non-radioactive KR medium and transferred to a superfusion apparatus to measure the drug effects on transmitter release [Schoemaker et al., Psychopharmacology 74, 137 (1981)]. The superfusion apparatus consisted of 10 thermo-jacketed glass columns of 5 mm diameter which were provided with GF/F glass fiber filters to support the brain slices (approximately 10 mg tissue/column). Superfusion was carried out with KR medium at a rate of 0.3 ml/min. For ACh release, 10^-5 M hemicholinium-3 was added to the medium to prevent the uptake of choline formed during superfusion from phospholipids and released ACh, so that it could not be subsequently converted into newly synthesized ACh, which would be released in preference to the pre-formed, labeled ACh. The medium was delivered by a 25-channel peristaltic pump (Ismatec; Brinkman) and maintained at 37° C. by a thermostated stainless-steel heating coil before entering the superfusion column. Each column was provided with a four-way slider valve (Beckman Instruments) which allowed rapid change of low-to-high-K^+ -KR-medium and with two 10-channel, 3-way valves which were used to change form drug-free to drug-containing low- and high-K^+ -KR media.
# After 15 min washout of non-specifically bound radioactivity during superfusion, the collection of fractions of 4 min (1.2 ml) each was started. After 3×4 min, the KR medium was changed to a KR medium with 25 mM KCl (ACh, 5-HT release) or 12.5 mM KCl (DA release) (high K^+ -KR medium; S1). Depolarization-induced stimulation of release by high-K^+ -KR medium was then substituted by drug- or vehicle-containing low- and high-K^+ -KR medium and superfusion continued for 3×4 min with low-K^+ -KR medium, for 1×4 min with high-K^+ -KR medium (S2), and for 2×4 min with low-K^+ -KR medium.
# Compounds were added to the medium by 100-fold dilution of appropriate stock solutions (in 0.9% NaCl/H2 O) with either low- or high-K^+ -KR medium.
# All superfusion fractions were collected in liquid scintillation counting vials.
row,Compound,ACh Release EC100
1,"3,3-Bis(3-pyridinylmethyl)-1-phenyl-1H-indol-2(3H)one N-oxide [Compound 23]","100,000 nM"
2,"CC(=O)c1ccc2c(c1)C(Cc1ccncc1)(Cc1ccncc1)c1ccccc1-2 [Compound 1, 1-[9,9-Bis(4-pyridinylmethyl)-9H-fluoren-2-yl]-ethanone]",170 nM
3,"Nc1ccc2c(c1)C(Cc1ccncc1)(Cc1ccncc1)c1ccccc1-2 [Compound 2, 9,9-Bis-(4-pyridinylmethyl)-9H-fluorene-2-amine]",140 nM
